Source: article PMC2587278 (Antioxidants & redox signaling, 2008)

Biological target: T1, zebrafish Ape1 (zApe1) (Danio rerio, UniProt A0MTA1, T58C)
T1 sequence (A0MTA1 1-310 T58C): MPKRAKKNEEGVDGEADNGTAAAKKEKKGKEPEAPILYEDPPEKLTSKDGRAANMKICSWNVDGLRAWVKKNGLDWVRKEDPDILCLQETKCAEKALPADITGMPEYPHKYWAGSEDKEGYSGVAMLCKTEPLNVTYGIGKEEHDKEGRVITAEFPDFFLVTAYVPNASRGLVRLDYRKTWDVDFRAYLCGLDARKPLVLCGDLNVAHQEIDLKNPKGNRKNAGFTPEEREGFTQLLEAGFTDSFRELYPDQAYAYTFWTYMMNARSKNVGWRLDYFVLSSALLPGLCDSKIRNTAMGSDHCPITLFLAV
Assay: redox EMSA: Ape1-stimulated AP-1 DNA binding, HEX-labelled oligonucleotide
Type: biochemical

## CCCCCCCCC/C(=C\C1=C(C)C(=O)C(OC)=C(OC)C1=O)C(=O)O [compound 5, (E)-3-(4,5-dimethoxy-2-methyl-3,6-dioxocyclohexa-1,4-dienyl)-2-nonylpropenoic acid]
  IC50: 5 µM
